Experimental data reported in paper PMC5036617 (Toxicological Sciences, 2016).
Where two headings read alike, the source gives them in different places.

Legend:
[1] = system: mitochondrial respiratory complex II; assay: In situ respiratory complex assay in permeabilized cells, complex II; format: cell-based; conditions: uncoupled, permeabilized HepG2 cells, 10–250 µM
[2] = system: HepG2 cells; assay: Assessment of superoxide level (mitoSOX red); format: cell-based; conditions: 2 h; for concentration significantly increasing cellular superoxide: HepG2 cells, glucose medium, 15–500 µM; for superoxide level in galactose media: acutely galactose-conditioned HepG2 cells, up to 500 µM
Experimental: HepG2 cells were collected by trypsinization and seeded on a 24-well plate (150 000 cells/500 µl/well) and incubated overnight in glucose medium (37°C, 5% CO2). […] Protein content per well was determined using a BCA assay (as described earlier) and was used to normalize superoxide levels.

[3] = system: Complex V (ATP synthase); assay: Complex V assay in permeabilized cells; format: cell-based; conditions: permeabilized HepG2 cells, OCR change coupled vs uncoupled cells, 10–250 µM
Experimental: The assay consisted of a basal OCR measurement of 2 cycles of mix (30 s), wait (30 s), and measure (2 min) followed by MAS or FCCP injection (0.5 µM) and 2 measurement cycles. MAS-injected cells remain coupled whereas FCCP-injected cells become uncoupled meaning Complex V (ATP synthase) inhibition should not result in a change in OCR. […] FIG. 4 Representative complex V assay trace. Complex V assays consisted of cells in a solution containing substrates for complex IV before a series of compound injections into the cell culture microplate. FCCP (OXPHOS uncoupler) (Trace A) or MAS buffer (Traces B and C) was first injected, followed by 2 cycles of measurements. Flutamide, 2-hydroxyflutamide, oligomycin (positive control), or vehicle control was then injected into both the uncoupled (FCCP-treated) and coupled (MAS-treated) cells. […] Each measurement cycle was a total of 3 min. Following completion of OCR assays, medium was removed from all wells and 20 µl of somatic cell ATP releasing agent was added to each well before shaking for 1 min and transfer of 10 µl of lysate to a 96-well plate and performance of a BCA assay according to the manufacturer’s instructions. Protein content per well was used to normalize OCR.

[4] = system: bile salt export pump; set-up: method as in Kostrubsky et al., 2007; conditions: via bile salt export pump inhibition; ref Kostrubsky et al., 2007; read-out: IC50 inhibition of taurocholate efflux; cited from earlier work
[5] = system: mitochondrial respiratory complex I; assay: Complex I-linked respiration assay in permeabilized cells; format: cell-based; conditions: for concentration inducing a significant reduction in complex I activity: permeabilized HepG2 cells, complex I-stimulated maximal respiration vs vehicle control, 10–250 µM
Experimental: (§1) Culture medium was replaced with MAS buffer containing constituents to stimulate oxygen consumption via complex I (as previously without FCCP), complex II (ADP; 4.6 mM, succinate; 20 mM, rotenone; 1 µM, BSA; 0.2% w/v, PMP; 1 nM), or complex III (ADP; 4.6 mM, duroquinol; 500 μM, rotenone; 1 μM, malonic acid; 40 μM, BSA; 0.2% w/v, PMP; 1 nM) dependent on the respiratory complex of interest. […] Changes in complex II activity were also assessed at lower compound concentrations; 2–30 μM (Supplementary Figure S1). Complex I, II, and III activity were defined by the change in complex I, II, or III-stimulated maximal respiration respectively compared with vehicle control.
(§2) Following completion of OCR assays, medium was removed from all wells and 20 µl of somatic cell ATP releasing agent was added to each well before shaking for 1 min and transfer of 10 µl of lysate to a 96-well plate and performance of a BCA assay according to the manufacturer’s instructions. Protein content per well was used to normalize OCR.

[6] = cited from earlier work; for half-life: after flutamide administration, ref Kostrubsky et al., 2007; for Cmax: plasma, ref Schulz et al., 1988, read-out: maximum plasma concentration (Cmax)
[7] = system: mitochondrial respiratory complex IV; assay: In situ respiratory complex assay in permeabilized cells, complex IV; format: cell-based; conditions: uncoupled, permeabilized HepG2 cells, 10–250 µM
[8] = system: HepG2 cells; assay: Cellular ATP content of HepG2 cells in glucose or galactose medium (ATP bioluminescent assay); format: cell-based; conditions: 2 h; for EC50ATPglu/EC50ATPgal: ratio ≥ 2 identifies a mitochondrial liability; for decrease in ATP content in galactose medium compared with glucose medium: up to 300 µM; for EC50: Homo sapiens, concentration reducing cellular ATP content by 50%
Experimental: Metabolic switching of cells was performed based on work previously described by ([[…] et al., 2015]). Briefly, 24 h prior to metabolic switch, HepG2 cells were collected by trypsinization and seeded on a collagen-coated flat-bottomed 96-well plate (20 000 cells/50 μl/well) and incubated (37°C, 5% CO2) overnight. […] Flutamide, 2-hydroxyflutamide and bicalutamide stock solutions were prepared in DMSO and diluted further in the appropriate medium. Compounds (50 μl) were then added to each well and cells were incubated for 2 h (37 °C, 5% CO2). All assays used ≤ 0.5% DMSO as a vehicle control. […] LDH content of the cells and supernatant was assessed using a cytotoxicity detection kit according to the manufacturer's instructions. ATP content was assessed using an ATP bioluminescent assay according to the manufacturer's instructions. Briefly, 10 μl of cell lysate or ATP standard curve solutions were added to a white-walled 96-well plate before addition of 40 μl ATP assay mix. Protein content of all wells was then assessed using a BCA assay applied to 10 μl of cell lysate and standards. LDH (490 nm), BCA (570 nm), and ATP assay luminescence were then measured using a plate reader (Varioskan, Thermo Scientific). ATP content readings were normalized to protein content. Experiments were conducted in a minimum of triplicate to ensure the reliability of single values. EC50 data were determined by nonlinear regression analysis using GraphPad Prism 5.0. Normality was assessed using a Shapiro-Wilk statistical test. Statistical significance was determined by an unpaired t-test for parametric data and a Mann-Whitney U test for non-parametric data using StatsDirect 2.7.9. P < .05 was taken as showing a significant difference.

[9] = system: mitochondrial respiratory complex III; assay: Complex III-linked respiration assay in permeabilized cells; format: cell-based; conditions: permeabilized HepG2 cells, complex III-stimulated maximal respiration, 10–250 µM
Experimental: as §1, §2

[10] = system: HepG2 cells; assay: Assessment of NAD+/NADH ratio; format: cell-based; conditions: 2 h, glucose medium, 30–500 µM
Experimental: HepG2 cells were collected by trypsinization and seeded on a 24-well plate (450 000 cells/500 µl/well) and incubated overnight in glucose medium (37 °C, 5% CO2). […] NAD^+ and NADH concentrations were measured in lysates using a NAD^+/NADH ratio assay kit according to the manufacturer’s instructions.

[11] = system: mitochondrial respiratory complex II; assay: Complex II-linked respiration assay in permeabilized cells; format: cell-based; conditions: permeabilized HepG2 cells; for complex II activity: complex II-stimulated maximal respiration vs vehicle control, 10–250 µM
Experimental: as §1, §2

[12] = galactose medium, read-out: EC50ATP (μM) Galactose
[13] = glucose medium, read-out: EC50ATP (μM) Glucose

Row | Structure (SMILES) | complex II activity (response to succinate) [1] | concentration significantly increasing cellular superoxide [2] [µM] | superoxide level in galactose media [2] | IC50 [4] [µM] | concentration inducing a significant reduction in complex I activity [5] [µM] | half-life [6] [h] | complex IV activity [7] | decrease in ATP content in galactose medium compared with glucose medium [8] | EC50 [8, 12] [µM] | EC50 [8, 13] [µM] | complex III activity [9] | NAD+/NADH ratio [10] | concentration significantly decreasing NAD+/NADH ratio [10] [µM] | complex II activity [11] | further results
1 | CC(C)C(=O)Nc1ccc([N+](=O)[O-])c(C(F)(F)F)c1 [Flutamide] | Only 2-hydroxyflutamide induced a significantly reduced response | ≥ 30 | significant increase | 75 | ≥ 30 | 7.8 | Neither compound appeared to have a significant impact | significantly more in the galactose medium | 43.9 | 255 | no significant inhibition | significantly decreased | ≥ 100 | only 2-hydroxyflutamide and not flutamide induced a significant reduction | complex V activity [3]: this was not the case for flutamide; OCR upon compound injection, complex I assay ([5]; permeabilised HepG2 cells, up to 250 µM): immediate concentration-dependent reduction in OCR; Cmax ([6]; single 250 mg dose of flutamide): 72.2 nM; parent drug as share of detectable compound in the plasma following administration ([6]; ref Radwanski et al., 1989): 2.5%; EC50ATPglu/EC50ATPgal [8]: 5.82 (0.03); EC50ATPglu/EC50ATPgal ([8]; listed as flutamide): ≥ 2
2 | CC(C)(O)C(=O)Nc1ccc([N+](=O)[O-])c(C(F)(F)F)c1 [2-hydroxyflutamide] | significantly reduced response | ≥ 30 | significant increase | 110 | ≥ 30 | 9.6 | Neither compound appeared to have a significant impact | significantly more in the galactose medium | 48.5 | 267 | no significant inhibition | significantly decreased | ≥ 100 | significant reduction | concentration inducing a significant reduction in complex V activity [3]: ≥ 125 µM; Cmax ([6]; metabolite after single 250 mg dose of flutamide): 4400 nM; concentration inducing a significant decline in complex II activity ([11]; complex II-stimulated maximal respiration, 2–30 and 10–250 µM): ≥ 10 µM
